Columns and labels:
[1] = tested on: rice leaf segments; assay: Dark-induced leaf senescence; parameters: species or system O. sativa, var. Shiokari; settings: for transcript level of senescence-associated gene Osl20 / transcript level of senescence-associated gene Osl295: after 5 d of treatment; for change in color of leaf segments, earlier than the control / chlorophyll content of leaf segments / ion leakage of leaf segments compared with the control: dark; for change in color of leaf segments, earlier than the control: 30 °C, change on the third day after treatment; for chlorophyll content of leaf segments: on the third day; for ion leakage of leaf segments compared with the control: sixth and seventh day, no difference in the first 5 d
Experimental: One-week-old rice (O. sativa, var. Shiokari) seedlings were established as mentioned above. Uniform seedlings were transferred to 50 ml tubes containing half-strength Hoagland nutrient solution for 7 d and grown in an incubator under white fluorescent light (130–180 μmol m^−2 s^−1) with 16 h/8 h (L/D) at 28 °C for 1 week. Leaf segments of 2 cm were cut from middle part of third leaves of rice plants. Each segment was put in a well (in 24-well plates) containing 2 ml of 2.5 mM MES buffer with 0.05% Tween-20, and incubated at 30 °C in the dark for 7 d. After application of MPs, color change, chlorophyll content, ion leakage, and gene expression were monitored daily for 7 d.

[2] = tested on: rice d3 mutant; assay: Rice micro tillering bioassay, d3 mutant; type: in vivo; settings: 2.5 μM, hydroponic culture; average of four tillers per plant in treated and untreated samples
Experimental: Rice seeds (WT, d3, d10) were surface-sterilized by washing with 70% ethanol for 1 min and then with 2.5% sodium hypochlorite for 15 min. Seeds were then rinsed thoroughly with sterile MilliQ water and incubated in water for 2 d at 30 °C in the dark. Pre-germinated seeds were transferred to filter papers containing half-strength MS medium in 90 mm Petri dishes and incubated at 30 °C under fluorescent white light (130–180 μmol m^−2 s^−1) for 1 week. Seven-day-old seedlings were transferred to 50 ml falcon tubes (one seedling per tube) containing modified half-strength Hoagland nutrient solution and grown in greenhouse. Plants were treated with MPs at 2.5 μM to 2.5 × 10^–7 μM, using GR24 as positive control. The compounds were applied six times, twice a week. Number of tillers per plant, plant height and fresh biomass were measured at final harvest.

[3] = molecular target: T1, ShHTL7 (Striga hermonthica, UniProt A0A0M3PNA2); assay: In vitro hydrolysis assay, ShHTL7; type: biochemical; settings: 10 µM substrate, 50 µg ml^−1 protein, 37 °C, HPLC
T1 sequence (A0A0M3PNA2 1-271): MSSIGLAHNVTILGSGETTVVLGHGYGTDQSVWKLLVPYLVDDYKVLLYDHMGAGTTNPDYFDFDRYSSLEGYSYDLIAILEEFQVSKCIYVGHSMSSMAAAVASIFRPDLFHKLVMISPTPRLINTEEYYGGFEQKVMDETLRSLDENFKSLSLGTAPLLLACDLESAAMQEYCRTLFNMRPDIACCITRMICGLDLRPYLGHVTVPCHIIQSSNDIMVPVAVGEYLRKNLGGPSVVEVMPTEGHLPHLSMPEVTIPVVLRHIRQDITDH
Description: Striga hermonthica ShHTL7 cDNA was used, GenBank accession KR013127, kindly provided by Tsuyoshi Ota, The University of Tokyo, Japan. Arabidopsis D14 (AtD14) cDNA, GenBank accession AY097402, was synthesized and cloned into pUC57 (GenScript). ShHTL7 and OsD14 cDNAs were amplified by RT-PCR using the primers shown in Supplementary Table S2, digested with BamHI and XhoI, and ligated into BamHI/XhoI-digested pGEX-6P-1 expression vector (GE Healthcare). […] The plasmids were then transformed into E. coli BL21 (DE3) cells. The cells were grown in LB broth containing ampicillin ([…]), incubated at 37 °C until OD600 of 0.6 and induced with 0.1 mM isopropyl-β-D-thiogalactopyranoside at 16 °C for 16 h. Harvested cells were resuspended in lysis buffer: 50 mM Tris–HCl (pH 8.0), 200 mM NaCl, 0.5% Tween-20 and 2 mM dithiothreitol (DTT). After sonication on ice for 10 min, the lysate was centrifuged at 75 000 g for 30 min at 4 °C. Supernatant was allowed to bind to glutathione–sepharose beads (GE Healthcare) for 2 h at 4 °C, washed 3 times with buffer (50 mM Tris-HCl (pH 8.0), 200 mM NaCl, 2 mM DTT), and eluted by cleaving the GST moiety with PreScission™ Protease (GE Healthcare) at 4 °C overnight. Eluted protein was further purified by gel filtration using a HiLoad 16/60 Superdex200 prep grade column (GE Healthcare) on an AKTA prime system (GE Healthcare) in gel filtration buffer (10 mM HEPES pH 7.5, 50 mM KCl and 2 mM DTT). […] Purified protein was concentrated using an Amicon 10K filter unit (Merck Millipore) and stored at −80 °C until use. A similar expression and purification protocol was followed for OsD14 protein, except that OsD14 was eluted from glutathione resins using 0.2 mM reduced glutathione (Sigma-Aldrich) without cutting the GST tag.
The hydrolysis of GR24 and MPs by ShHTL7/OsD14 was performed in a total volume of 0.5 ml of phosphate-buffered saline containing 10 µM of substrate. Purified ShHTL7/OsD14 was added at a concentration of 50 µg ml^−1 and incubated for the indicated time at 37 °C. After adding 1-indanol (10 µl of a 2.5 mg ml^−1 solution in methanol), as internal standard, solutions were filtered and transferred to HPLC vials. […] The column was operated at 30 °C with a flow rate of 0.2 ml min^−1. Eluted compounds were detected using a diode array detector. Amounts of remaining substrates were determined by calculating corresponding peaks, in comparison with an internal standard.

[4] = molecular target: T1, ShHTL7; assay: Intrinsic tryptophan fluorescence assay, ShHTL7; type: binding
Description: Striga hermonthica ShHTL7 cDNA was used, GenBank accession KR013127, kindly provided by Tsuyoshi Ota, The University of Tokyo, Japan. Arabidopsis D14 (AtD14) cDNA, GenBank accession AY097402, was synthesized and cloned into pUC57 (GenScript). ShHTL7 and OsD14 cDNAs were amplified by RT-PCR using the primers shown in Supplementary Table S2, digested with BamHI and XhoI, and ligated into BamHI/XhoI-digested pGEX-6P-1 expression vector (GE Healthcare). […] The plasmids were then transformed into E. coli BL21 (DE3) cells. The cells were grown in LB broth containing ampicillin ([…]), incubated at 37 °C until OD600 of 0.6 and induced with 0.1 mM isopropyl-β-D-thiogalactopyranoside at 16 °C for 16 h. Harvested cells were resuspended in lysis buffer: 50 mM Tris–HCl (pH 8.0), 200 mM NaCl, 0.5% Tween-20 and 2 mM dithiothreitol (DTT). After sonication on ice for 10 min, the lysate was centrifuged at 75 000 g for 30 min at 4 °C. Supernatant was allowed to bind to glutathione–sepharose beads (GE Healthcare) for 2 h at 4 °C, washed 3 times with buffer (50 mM Tris-HCl (pH 8.0), 200 mM NaCl, 2 mM DTT), and eluted by cleaving the GST moiety with PreScission™ Protease (GE Healthcare) at 4 °C overnight. […]

[5] = tested on: Arabidopsis seedlings; assay: Arabidopsis lateral root density; type: in vivo; settings: 1.0 μM, 8-day-old seedlings
Experimental: Sterilized Arabidopsis seeds were sown on half-strength MS (with 0.5% sucrose+1% agar, 0.5 g l^−1 MES, pH 5.7) plates supplemented with GR24 or MPs (at 1.0 μM). Plates were stored at 4 °C in darkness for 3 d and then vertically grown at 22 °C in a Percival incubator under long day condition (16 h at 22 °C/8 h at 16 °C day/night, 60% relative humidity, 60–70 μmol m^−2 s^−1 white light) for 8 d. For determining the effect on lateral root density and primary root length, at least 30 seedlings were measured using ImageJ software after scanning roots.

[6] = tested on: Arabidopsis seedlings; assay: Arabidopsis hypocotyl elongation assay; type: in vivo; settings: 1.0 μM, continuous red light
Experimental: Sterilized Arabidopsis seeds were sown on half-strength MS (with 0.5% sucrose+1% agar, 0.5 g l^−1 MES, pH 5.7) plates supplemented with MPs or GR24 (at 1.0 μM). Plates were stored at 4 °C in darkness for 3 d. To initiate germination, plates were exposed to continuous white light for 24 h, then transferred to continuous monochromatic red light (20 μmol m^−2 s^−1, 22 °C) conditions for another 4 d. For hypocotyl length measurement, at least 30 seedlings were measured using the freely available ImageJ software (http://rsbweb.nih.gov/ij/) after taking digital photographs. A monochromatic red light source was applied as described previously ([Wu and Yang, 2010]). Light flow rates were measured using a Li250 quantum photometer (Li-Cor, Lincoln, NE, USA).

SMILES | transcript level of senescence-associated gene Osl20 [1] | transcript level of senescence-associated gene Osl295 [1] | change in color of leaf segments, earlier than the control [1] | chlorophyll content of leaf segments [1] | ion leakage of leaf segments compared with the control [1] | high-tillering phenotype of SL-insensitive d3 mutant [2] | hydrolysis rate by ShHTL7 (rank order) [3] | Kd [4] | reduction of lateral root number/density [5] | inhibition of hypocotyl growth [6]
CC1=CC(OC=C2C(=O)OC3c4ccccc4CC23)OC1=O (centres unmarked) [GR24, reference compound] | striking increase | striking increase | about 2 d | clear reduction | striking increase | neither MPs nor GR24 could restore the high-tillering phenotype | highest hydrolysis rates with MP1, followed by MP7, GR24, and finally MP3 | 440 ± 210 nM | – | –
COC(=O)/C(=C/OC1C=C(C)C(=O)O1)c1ccc([N+](=O)[O-])cc1 (centres unmarked) [MP1, (E)-methyl 3-(4-methyl-5-oxo-2,5-dihydrofuran-2-yloxy)-2-(4-nitrophenyl)acrylate] | – | – | – | – | – | – | highest hydrolysis rates with MP1, followed by MP7, GR24, and finally MP3 | – | most efficient compound and showed an activity higher than that of GR24 | –
COC(=O)/C(=C/OC1C=C(C)C(=O)O1)c1ccccc1 (centres unmarked) [MP3, (E)-methyl 3-(4-methyl-5-oxo-2,5-dihydrofuran-2-yloxy)-2-phenylacrylate] | striking increase in their transcripts, which was more pronounced | striking increase in their transcripts, which was more pronounced | about 2 d | clear reduction | striking increase | – | highest hydrolysis rates with MP1, followed by MP7, GR24, and finally MP3 | – | – | –
COC(=O)/C(=C/OC1C=C(C)C(=O)O1)c1ccc(Cl)cc1 (centres unmarked) [MP7] | – | – | – | – | – | – | highest hydrolysis rates with MP1, followed by MP7, GR24, and finally MP3 | 1150 ± 310 nM | slightly more active than GR24 | stronger inhibitory effect than GR24

From paper PMC5913645, “Methyl phenlactonoates are efficient strigolactone analogs with simple structure” (Journal of Experimental Botany, 2017)
